Results on 1 molecule are retold here after ChEMBL document CHEMBL5137114, “Discovery of IHMT-MST1-58 as a Novel, Potent, and Selective MST1 Inhibitor for the Treatment of Type 1/2 Diabetes” (J Med Chem, 2022).

Activity calls are given as the source filed them. The rule behind the calls is not given here.

Series [1] has as its target T1, Serine/threonine-protein kinase 4 (Homo sapiens, UniProt Q13043).
T1 sequence (Q13043 whole entry): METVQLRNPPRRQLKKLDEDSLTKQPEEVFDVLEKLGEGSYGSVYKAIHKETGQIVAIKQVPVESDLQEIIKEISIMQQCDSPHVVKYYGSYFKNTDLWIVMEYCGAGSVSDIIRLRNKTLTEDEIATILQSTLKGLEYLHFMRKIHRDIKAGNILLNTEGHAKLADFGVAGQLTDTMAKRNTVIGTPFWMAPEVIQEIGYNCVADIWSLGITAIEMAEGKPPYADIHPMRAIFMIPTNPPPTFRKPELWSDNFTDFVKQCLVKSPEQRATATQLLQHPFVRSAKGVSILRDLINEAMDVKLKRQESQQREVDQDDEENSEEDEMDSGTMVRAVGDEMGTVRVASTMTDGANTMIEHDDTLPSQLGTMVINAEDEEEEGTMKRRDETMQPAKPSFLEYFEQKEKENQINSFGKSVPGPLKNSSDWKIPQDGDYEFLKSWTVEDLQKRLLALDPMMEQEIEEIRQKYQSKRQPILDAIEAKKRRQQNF
The experiment in a line: Binding affinity to wild-type human full length MST1 (M1 to F487 residues) expressed in bacterial expression system by Kinomescan method.

Series [2] has as its target T2, Serine/threonine-protein kinase 3 (Homo sapiens, UniProt Q13188).
T2 sequence (Q13188 whole entry): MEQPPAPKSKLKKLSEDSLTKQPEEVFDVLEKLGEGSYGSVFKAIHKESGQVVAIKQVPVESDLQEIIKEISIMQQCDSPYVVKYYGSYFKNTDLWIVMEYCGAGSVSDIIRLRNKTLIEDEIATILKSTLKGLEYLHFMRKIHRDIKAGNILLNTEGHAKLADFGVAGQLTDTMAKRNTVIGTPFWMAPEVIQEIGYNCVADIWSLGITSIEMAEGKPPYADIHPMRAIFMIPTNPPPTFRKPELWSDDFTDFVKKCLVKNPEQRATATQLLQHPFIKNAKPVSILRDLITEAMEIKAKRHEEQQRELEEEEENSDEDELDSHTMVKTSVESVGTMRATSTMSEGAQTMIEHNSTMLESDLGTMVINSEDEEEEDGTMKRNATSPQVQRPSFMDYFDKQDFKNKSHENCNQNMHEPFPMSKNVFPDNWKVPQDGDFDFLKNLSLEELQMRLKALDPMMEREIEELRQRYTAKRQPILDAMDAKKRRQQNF
The series can be described thus: Binding affinity to wild-type human partial length MST2 (D17 to E318 residues) expressed in bacterial expression system by Kinomescan method.

The nature of series [3]: Oral bioavailability in mouse at 10 mg/kg measured up to 24 hrs by LC-MS/MS analysis. The conditions noted are these: in vivo. The class given is ADME, organism-based.
Series [4] in a line: AUC (0 to t) in Sprague-Dawley rat at 1 mg/kg, iv measured up to 12 hrs by LC-MS/MS analysis. Further details: dose 1 mg/kg, time < 12 hrs, route iv. The conditions noted are these: in vivo. The class given is ADME, organism-based.
Series [5] in a line: Half life in Sprague-Dawley rat at 10 mg/kg, po measured up to 24 hrs by LC-MS/MS analysis. The class given is ADME, organism-based. The settings on record: in vivo.
A short description of series [6]: AUC (0 to t) in mouse plasma at 50 mg/kg, po measured up to 24 hrs by LC-MS/MS analysis. Further details: dose 50 mg/kg, time < 24 hrs, route po. Type of series: ADME, organism-based.
Series [7] in a line: Cmax in mouse Pancreas at 50 mg/kg, po measured up to 24 hrs by LC-MS/MS analysis. The class given is ADME, organism-based. On the set-up: dose 50 mg/kg, time < 24 hrs, route po.
In series [8] the test system is Mus musculus. The experiment in a line: Antidiabetic activity against 8 hrs fasted multi low dose STZ-induced C57BL/6J mouse model of type 1 diabetes assessed as decrease in fasting blood glucose level at 50 mg/kg, po administered for 77 days in presence of metformin (reference value: 22.3 mmol/L). The class given is functional. The settings on record: time 77 day.

For series [9], the system named is Mus musculus. The series can be described thus: Antidiabetic activity against multi low dose STZ-induced C57BL/6J mouse model of type 1 diabetes assessed as food intake at 50 mg/kg, po administered for 78 to 79 days in presence of metformin (reference value: 4.7 g/day). The settings on record: time 78-79 day. The class given is functional.
Series [10] relates to Mus musculus. The series can be described thus: Antidiabetic activity in multi low dose STZ-induced C57BL/6J mouse model of type 1 diabetes assessed as reduction in HbA1c level at 50 mg/kg, po qd (reference value: 7.6 %). Type of series: functional. On the set-up: scale not given: the % may be the effect or the level left.
Series [11] deals with Mus musculus. The series can be described thus: Antidiabetic activity in multi low dose STZ-induced C57BL/6J mouse model of type 1 diabetes assessed as reduction in HbA1c level at 50 mg/kg, po qd administered in presence of metformin (reference value: 7.6 %). Type of series: functional. On the set-up: scale not given: the % may be the effect or the level left.
The nature of series [12]: Toxicity in multi low dose STZ-induced C57BL/6J mouse model of type 1 diabetes assessed as effect on pancreas morphology at 50 mg/kg, po qd in presence of metformin by H and E staining based analysis. Type of series: organism-based. The settings on record: in vivo.
In series [13] the test system is Mus musculus. The series can be described thus: Antidiabetic activity in high fat diet-STZ-induced C57BL/6J mouse model of type 2 diabetes assessed as reduction in HbA1c level at 50 mg/kg, po qd (reference value: 8.6 %). Type of series: functional. On the set-up: scale not given: the % may be the effect or the level left.
Series [14] can be described thus: Toxicity in high fat diet-STZ-induced C57BL/6J mouse model of type 2 diabetes assessed as effect on pancreas morphology at 250 mg/kg, po qd in presence of metformin by H and E staining based analysis. The class given is organism-based. The conditions noted are these: in vivo.
For series [15], the system named is RIN-m5F. The series can be described thus: Protection against TNF-alpha-induced cell damage in rat RIN-m5F cells assessed as increase in cell survival at 0.03 to 0.3 uM incubated for 48 hrs by Cell Titer-Glo assay. Type of series: functional, cell-based. The conditions noted are these: dose 0.03-0.3 µM. For orientation: In ATP-based viability assays light output follows the ATP content of the culture.

Series [16] relates to Serine/threonine-protein kinase 4 (Rattus norvegicus). The series can be described thus: Inhibition of IL-1beta-stimulated MST1 phosphorylation in rat INS1 cells incubated for 12 hrs by Western blotting analysis. The conditions noted are these: dose 0.1-10 µM, DDE = dose-dependent effect. Background: In western blotting, separated proteins are transferred to a membrane and probed.

Series [17] shares this test system. The series can be described thus: Inhibition of INF-gamma-stimulated MST1 phosphorylation in rat INS1 cells incubated for 12 hrs by Western blotting analysis. The settings on record: dose 0.1-10 µM, DDE = dose-dependent effect.
Series [18] has the same test system. The experiment in a line: Inhibition of INF-gamma-stimulated MST1 phosphorylation in rat RIN-m5F cells incubated for 12 hrs by Western blotting analysis. The conditions noted are these: dose 0.1-10 µM, DDE = dose-dependent effect.
Series [19] has the same test system. The experiment in a line: Inhibition of TNF-alpha-stimulated MST1 in rat INS1 cells assessed as reduction in MOB1 autophosphorylation incubated for 12 hrs by Western blotting analysis. The settings on record: dose 0.1-10 µM, DDE = dose-dependent effect.
For series [20] the test system is unchanged. The experiment in a line: Inhibition of INF-gamma-stimulated MST1 in rat INS1 cells assessed as reduction in MOB1 autophosphorylation incubated for 12 hrs by Western blotting analysis. The conditions noted are these: dose 0.1-10 µM, DDE = dose-dependent effect.

`Cc1ccccc1C1C(=O)N(C)c2cnc(Nc3ccc(S(N)(=O)=O)cc3)nc2N1C` (stereo not given): the Kd in series [1] was determined as 240 nM; in [2], 2700 nM. Besides, the bioavailability in series [3] was 111%. Further, the AUCt in series [4] was determined as 2553 ng·h/mL. This molecule also gave a half-life in [5] of 3.03 h. The same molecule displayed an AUC(0-t) at 24 h in series [6] of 13600 ng·h/mL. Further, the concentration in series [7] peaked (Cmax) at 12200 ng/mL. In addition, the Activity is 8.9 mmol/L in series [8]; 4.1 g/day in series [9]; 6.7% in series [10]; 6.1% in series [11]; “Non-Toxic” in series [12]; 7.9% in series [13]. Further, the Activity entry in series [14] is “Non-Toxic”. The outcome in series [15] was Active. The inhibition entry in series [16], in series [17], in series [18], in [19] and in series [20] was “Dde” in each case.

By Kd is commonly meant the constant that tells how readily two partners part at equilibrium. By half-life is commonly meant how long it takes for the measured level to halve. Usually AUC(0-t) stands for exposure summed from dosing to a finite time, without extrapolation to infinity. Broadly, the Cmax is the highest concentration seen after dosing.
